The record followed here is patent publication US7514445B2, “Heteroaryl amines as glycogen synthase kinase 3β inhibitors (GSK3 inhibitors)” (Janssen Pharmaceutica N.V., priority 2001, dated 2009).

Each structure is given as a SMILES string.

Sequence of GSK3β (P49841 whole entry, species assumed): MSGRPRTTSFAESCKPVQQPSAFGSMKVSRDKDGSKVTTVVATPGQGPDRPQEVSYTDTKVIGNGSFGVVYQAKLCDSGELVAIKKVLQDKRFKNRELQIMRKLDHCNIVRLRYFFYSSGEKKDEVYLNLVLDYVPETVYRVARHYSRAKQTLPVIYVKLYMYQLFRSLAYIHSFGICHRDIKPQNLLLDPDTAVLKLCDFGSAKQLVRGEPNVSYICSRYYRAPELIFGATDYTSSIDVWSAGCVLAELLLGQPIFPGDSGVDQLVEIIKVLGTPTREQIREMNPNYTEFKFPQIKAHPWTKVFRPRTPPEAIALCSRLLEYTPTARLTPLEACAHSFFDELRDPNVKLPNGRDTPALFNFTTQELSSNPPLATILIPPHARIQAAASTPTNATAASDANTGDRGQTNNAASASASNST

This assay concerns the target GSK3β (Homo sapiens, UniProt P49841). In words: GSK3beta assay (SPA, phosphorylation of biotinylated phosphorylated CREB peptide, ATP-P33). The assay is classed as biochemical. Particulars: -log IC50 (M); 25° C., 19 nM GSK3β, 5 μM biotinylated phosphorylated CREB peptide, 1 μM ATP, one hour. The method, then: GSK3beta assays were performed at 25° C. in a 100 μl reaction volume of 25 mM Tris (pH 7.4) containing 10 mM MgCl2, 1 mM DTT, 0.1 mg/ml BSA, 5% glycerol and containing 19 nM GSK3β, 5 μM biotinylated phosphorylated CREB peptide, 1 μM ATP, 2 nM ATP-P^33 and a suitable amount of a test compound of formula (I) or (I′). After one hour, the reaction was terminated by adding 70 μl of Stop mix (1 mM ATP, 18 mg/ml streptavidin coated PVT SPA bead pH 11.0). The beads to which the phosphorylated CREB peptide is attached were allowed to settle for 30 minutes and the radioactivity of the beads was counted in a microtiterplate scintillation counter and compared with the results obtained in a control experiment (without the presence of a test compound) in order to determine the percentage of GSK3β, inhibition. The IC50 value, i.e. the concentration (M) of the test compound at which 50% of GSK3, is inhibited, was calculated from the dose response curve obtained by performing the above-described GSK3β assay in the presence of different amounts of the test compound.
Table 5 lists pIC50 values (-log IC50 (M)) obtained in the above-described test for the present compounds.
By IC50 is commonly meant the concentration that gives 50% inhibition. Low readings indicate higher potency, high ones lower potency. Compound `N#Cc1ccc(Nc2nccc(NCc3cccs3)n2)cc1` [Compound 22, 4-[4-[(thiophen-2-ylmethyl)-amino]-pyrimidin-2-ylamino]-benzonitrile] gave an IC50 of 1.82e-06 M.

`Cc1cc(C)c(Nc2ccnc(Nc3ccc4c(c3)OCO4)n2)c(C)c1` [Compound 17, N^2-benzo[1,3]dioxol-5-yl-N^4(2,4,6-trimethyl-phenyl)-2,4-pyrimidinediamine]: the IC50 is 5.01e-06 M.

As for `Cc1cc(C)c(Nc2ccnc(Nc3ccc4[nH]ncc4c3)n2)c(C)c1` [Compound 2, N^2-(1H-indazol-5-yl)-N^4-(2,4,6-trimethylphenyl)-2,4-pyrimidinediamine], the IC50 is 5.25e-07 M. This IC50 lies about 9.5-fold lower than the previous one.

In turn, `Cc1cc(C)c(Nc2ccnc(Nc3ccc4ncccc4c3)n2)c(C)c1` [Compound 20, N^2-quinolin-6-yl-N-4-(2,4,6-trimethyl-phenyl)-2,4-pyrimidinediamine] showed an IC50 of 3.63e-06 M.

The compound `CCN1CCCC1CNc1ccnc(Nc2ccc(C#N)cc2)n1` (stereo not shown) [Compound 25] showed an IC50 of 1.91e-06 M.

Turning to `Cn1ccnc1-c1ccnc(Nc2ccc(C#N)c(OCc3ccccc3)c2)n1` [Compound 6, 4-[[4-(1-methyl-1H-imidazol-2-yl)-2-pyrimidinyl]amino]-2-(phenylmethoxy)-benzonitrile], the concentration for half-maximal inhibition (IC50) is 9.77e-08 M.

Turning to `N#Cc1ccc(Nc2nccc(NCc3ccco3)n2)cc1` [Compound 26, 4-[4-[(furan-2-ylmethyl)-amino]-pyrimidin-2-ylamino]-benzonitrile], half-maximal inhibition (IC50) was put at 1.55e-06 M. This IC50 is about 16-fold higher than that of the compound before.

`CC1(C)OCC(CNc2ccnc(Nc3ccc(C#N)cc3)n2)O1` (stereo not shown) [Compound 24] showed an IC50 of 4.37e-06 M.

As to `Cn1ccnc1-c1ccnc(Nc2ccc(C#N)cc2)n1` [Compound 33, 4-[[4-(1-methyl-1H-imidazol-2-yl)-2-pyrimidinyl]amino]-benzonitrile], the IC50 is 7.76e-08 M.

In turn, `N#Cc1ccc(Nc2nccc(C(=O)N3CCNCC3)n2)cc1OCc1ccccc1` [Compound 4] gave an IC50 of 2.95e-06 M.
